Experimental data published in ChEMBL document CHEMBL5634147, “Multi-targeted anti-Alzheimer's agents: Synthesis, biological evaluation, and molecular modeling study of some pyrazolopyridine hybrids” (Eur J Med Chem, 2023).
Values belong to the compound of their own block, whether it stands above or below them. Activity calls are given as the source filed them. The calls are words filed in the database; no cut-off is given here. Non-standard residues stand in square brackets, D forms with d. Residues, ends and D or L forms follow the SMILES beside them. *: point of attachment. Myristoyl = CCCCCCCCCCCCCC(=O)*; pS = N[C@@H](COP(=O)(O)O)C(=O)O

Experiments:
Acetylcholinesterase = Acetylcholinesterase (Homo sapiens, UniProt P22303); assay: Inhibition of human AChE using acetylthiocholine iodide as substrate measured after 15 to 20 mins by DTNB reagent based Ellman's method
[1] = Cytotoxicity against human WI-38 cells assessed as cell viability upto 3.125 uM incubated for 72 hrs by MTT assay relative to control; assay type: toxicity, cell-based; conditions: read-out: Activity
[2] = biological target: Glycogen synthase kinase-3 beta (Homo sapiens, UniProt P49841); assay: Inhibition of human GSK3beta by luminescent microplate reader method
human AChE = assay: Safety index, ratio of IC50 for cytotoxicity against human WI-38 cells to IC50 for human AChE; assay type: toxicity, cell-based; conditions: read-out: Ratio IC50
[3] = biological target: T1, Amyloid-beta precursor protein (Homo sapiens, UniProt P05067); assay: Inhibition of self-mediated Amyloid beta (1 to 42) (unknown origin) aggregation at 10 uM measured every 5 mins by ThT fluorescence based assay relative to control
[4] = biological target: T2, Microtubule-associated protein tau (Homo sapiens, UniProt P10636); assay: Inhibition of human tau protein aggregation at 10 uM incubated for 1.5 hrs by TMB substrate based ELISA relative to control
[5] = biological target: T2, Microtubule-associated protein tau; assay: Inhibition of human tau protein aggregation incubated for 1.5 hrs by TMB substrate based ELISA
Cholinesterase = Cholinesterase (Homo sapiens, UniProt P06276); assay: Inhibition of human BuChE measured after 15 to 20 mins by DTNB reagent based Ellman's method
[6] = Metal chelating activity assessed as Cu2+-compound complex formation by measuring hypochromic shift in presence of CuSO4 by UV-Vis spectroscopy
[7] = Metal chelating activity assessed as Fe2+-compound complex formation by measuring hyperchromic shift in presence of FeSO4 by UV-Vis spectroscopy
[8] = biological target: T1, Amyloid-beta precursor protein; assay: Inhibition of self mediated Amyloid beta (1 to 42) (unknown origin) aggregation measured every 5 mins by ThT fluorescence based assay
[9] = Cytotoxicity against human WI-38 cells assessed as inhibition of cell growth incubated for 72 hrs by MTT assay; assay type: toxicity, cell-based
[10] = Metal chelating activity assessed as Zn2+-compound complex formation by measuring hypochromic shift in presence of ZnSO4 by UV-Vis spectroscopy
[11] = Metal chelating activity assessed as Zn2+-compound complex formation by measuring hyperchromic shift in presence of ZnSO4 by UV-Vis spectroscopy
[12] = Metal chelating activity assessed as Cu2+-compound complex formation by measuring hyperchromic shift in presence of CuSO4 by UV-Vis spectroscopy

Sequence of Glycogen synthase kinase-3 beta (P49841 whole entry): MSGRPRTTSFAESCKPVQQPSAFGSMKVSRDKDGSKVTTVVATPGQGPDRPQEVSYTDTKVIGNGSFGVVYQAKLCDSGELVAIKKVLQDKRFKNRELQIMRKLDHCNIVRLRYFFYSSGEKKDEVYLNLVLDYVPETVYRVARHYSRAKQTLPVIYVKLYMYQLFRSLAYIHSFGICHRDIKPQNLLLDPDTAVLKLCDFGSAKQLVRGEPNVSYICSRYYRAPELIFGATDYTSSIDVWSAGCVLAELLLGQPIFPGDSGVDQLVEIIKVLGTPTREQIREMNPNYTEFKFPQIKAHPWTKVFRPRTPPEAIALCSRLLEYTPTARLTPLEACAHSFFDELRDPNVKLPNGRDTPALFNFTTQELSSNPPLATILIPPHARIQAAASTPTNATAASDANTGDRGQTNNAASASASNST
T1 sequence (P05067 whole entry): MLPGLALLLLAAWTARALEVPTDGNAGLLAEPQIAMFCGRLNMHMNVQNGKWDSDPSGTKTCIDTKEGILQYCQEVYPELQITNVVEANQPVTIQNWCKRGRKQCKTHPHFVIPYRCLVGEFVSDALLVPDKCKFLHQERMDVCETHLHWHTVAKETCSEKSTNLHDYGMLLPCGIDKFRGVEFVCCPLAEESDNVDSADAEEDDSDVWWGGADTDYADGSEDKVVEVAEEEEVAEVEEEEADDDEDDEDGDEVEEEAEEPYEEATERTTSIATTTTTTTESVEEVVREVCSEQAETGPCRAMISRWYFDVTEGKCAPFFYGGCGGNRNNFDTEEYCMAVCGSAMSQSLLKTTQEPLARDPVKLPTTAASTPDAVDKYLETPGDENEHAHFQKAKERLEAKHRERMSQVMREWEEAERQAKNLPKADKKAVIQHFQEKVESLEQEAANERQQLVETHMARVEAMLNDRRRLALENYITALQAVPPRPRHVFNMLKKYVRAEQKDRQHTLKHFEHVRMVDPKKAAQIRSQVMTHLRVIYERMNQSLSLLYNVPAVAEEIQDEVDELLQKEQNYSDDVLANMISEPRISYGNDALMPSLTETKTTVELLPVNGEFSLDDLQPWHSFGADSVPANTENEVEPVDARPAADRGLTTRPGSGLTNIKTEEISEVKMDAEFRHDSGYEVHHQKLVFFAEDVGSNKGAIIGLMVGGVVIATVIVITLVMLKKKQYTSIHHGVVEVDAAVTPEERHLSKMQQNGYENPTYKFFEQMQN
Sequence of Acetylcholinesterase (P22303 whole entry): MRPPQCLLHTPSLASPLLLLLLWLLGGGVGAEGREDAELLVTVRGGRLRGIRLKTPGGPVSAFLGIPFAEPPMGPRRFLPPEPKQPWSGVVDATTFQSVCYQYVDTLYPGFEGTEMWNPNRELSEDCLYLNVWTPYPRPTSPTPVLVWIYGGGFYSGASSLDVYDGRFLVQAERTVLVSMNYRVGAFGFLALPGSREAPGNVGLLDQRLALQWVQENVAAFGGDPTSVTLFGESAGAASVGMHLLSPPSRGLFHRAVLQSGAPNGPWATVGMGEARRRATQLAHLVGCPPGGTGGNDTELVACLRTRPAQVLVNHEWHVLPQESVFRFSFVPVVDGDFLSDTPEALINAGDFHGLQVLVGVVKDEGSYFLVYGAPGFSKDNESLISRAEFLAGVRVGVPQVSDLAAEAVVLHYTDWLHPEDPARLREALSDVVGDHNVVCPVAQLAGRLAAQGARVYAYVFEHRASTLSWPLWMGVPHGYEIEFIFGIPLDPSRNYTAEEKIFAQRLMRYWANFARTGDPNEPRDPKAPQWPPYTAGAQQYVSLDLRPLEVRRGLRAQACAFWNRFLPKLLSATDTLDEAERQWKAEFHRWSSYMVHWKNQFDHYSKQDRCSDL
T2 sequence (P10636 whole entry): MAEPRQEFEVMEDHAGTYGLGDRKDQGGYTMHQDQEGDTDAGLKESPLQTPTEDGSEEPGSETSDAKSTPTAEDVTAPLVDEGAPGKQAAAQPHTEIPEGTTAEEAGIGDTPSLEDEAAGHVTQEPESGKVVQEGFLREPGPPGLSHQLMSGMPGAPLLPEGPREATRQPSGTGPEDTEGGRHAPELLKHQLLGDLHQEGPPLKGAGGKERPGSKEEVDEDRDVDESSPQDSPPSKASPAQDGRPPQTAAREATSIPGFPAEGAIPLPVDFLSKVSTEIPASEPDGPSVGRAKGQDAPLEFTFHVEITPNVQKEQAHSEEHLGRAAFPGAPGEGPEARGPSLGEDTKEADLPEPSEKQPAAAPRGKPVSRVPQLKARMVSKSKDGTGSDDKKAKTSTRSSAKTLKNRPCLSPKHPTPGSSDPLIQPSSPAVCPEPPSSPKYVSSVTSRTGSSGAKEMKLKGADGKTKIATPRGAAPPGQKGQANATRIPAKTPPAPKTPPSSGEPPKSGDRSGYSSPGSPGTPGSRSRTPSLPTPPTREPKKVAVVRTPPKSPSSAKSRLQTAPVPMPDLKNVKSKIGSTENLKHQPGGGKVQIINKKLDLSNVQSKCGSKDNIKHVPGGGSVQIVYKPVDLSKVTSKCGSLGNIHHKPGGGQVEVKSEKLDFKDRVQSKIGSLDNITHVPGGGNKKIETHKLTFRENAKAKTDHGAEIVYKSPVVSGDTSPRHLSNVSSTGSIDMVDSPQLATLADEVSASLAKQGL
Sequence of Cholinesterase (P06276 whole entry): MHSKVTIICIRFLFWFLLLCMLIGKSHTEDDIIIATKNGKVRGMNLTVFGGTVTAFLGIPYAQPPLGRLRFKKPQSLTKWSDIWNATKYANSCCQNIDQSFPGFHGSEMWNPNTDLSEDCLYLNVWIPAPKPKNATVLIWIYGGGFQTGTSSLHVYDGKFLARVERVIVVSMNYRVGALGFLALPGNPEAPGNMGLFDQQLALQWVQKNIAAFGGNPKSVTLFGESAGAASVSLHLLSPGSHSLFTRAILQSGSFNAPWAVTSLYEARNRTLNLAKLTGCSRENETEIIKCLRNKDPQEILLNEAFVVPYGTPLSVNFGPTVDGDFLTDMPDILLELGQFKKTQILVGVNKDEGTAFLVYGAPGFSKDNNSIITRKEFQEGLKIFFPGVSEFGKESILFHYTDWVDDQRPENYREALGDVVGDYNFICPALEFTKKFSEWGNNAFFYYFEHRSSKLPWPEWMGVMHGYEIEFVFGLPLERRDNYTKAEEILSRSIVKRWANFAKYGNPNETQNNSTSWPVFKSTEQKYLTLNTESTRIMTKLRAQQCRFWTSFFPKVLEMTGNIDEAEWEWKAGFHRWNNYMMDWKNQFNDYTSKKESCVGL

Compound: Nc1n[nH]c2nc(-c3ccccc3)cc(-c3ccccc3)c12
IC50 (Acetylcholinesterase): 5.27 µM

Compound: COc1ccc(-c2cc(-c3ccc(Br)cc3)nc3[nH]nc(N)c23)cc1OC
viability at 72 h, 3.125 µM [1]: 100% | IC50 [2]: 0.26 µM | selectivity ratio (human AChE): 528 | inhibition [3]: 75% | inhibition [4]: 60% | IC50 (Acetylcholinesterase): 0.16 µM | IC50 [5]: 20.3 µM | IC50 (Cholinesterase): 0.69 µM | Activity [6]: Active | Activity [7]: Active | IC50 [8]: 0.77 µM | IC50 at 72 h [9]: 84.5 µM | Activity [10]: Active

Compound: COc1cc(-c2cc(-c3ccc(Br)cc3)nc3[nH]nc(N)c23)cc(OC)c1OC
IC50 (Acetylcholinesterase): 0.63 µM

Compound: COc1ccc(-c2cc(-c3ccc(OC)cc3)c3c(N)n[nH]c3n2)cc1
IC50 (Acetylcholinesterase): 0.26 µM

Compound: COc1ccc(-c2cc(-c3ccccc3)nc3[nH]nc(N)c23)cc1OC
IC50 (Acetylcholinesterase): 9.63 µM

Compound: Nc1n[nH]c2nc(-c3ccccc3)cc(-c3ccc(Br)cc3)c12
IC50 (Acetylcholinesterase): 2.24 µM

Compound: COc1cc(-c2cc(-c3ccccc3)nc3[nH]nc(N)c23)cc(OC)c1OC
IC50 (Acetylcholinesterase): 1.89 µM

Compound: COc1ccc(-c2cc(-c3ccc(Br)cc3)c3c(N)n[nH]c3n2)cc1
IC50 (Acetylcholinesterase): 3.72 µM

Compound: COc1ccc(-c2cc(-c3ccc(OC)c(OC)c3)c3c(N)n[nH]c3n2)cc1
IC50 (Acetylcholinesterase): 0.81 µM

Compound: COc1ccc(-c2cc(-c3cc(OC)c(OC)c(OC)c3)c3c(N)n[nH]c3n2)cc1
IC50 (Acetylcholinesterase): 6.01 µM

Compound: COc1ccc(-c2cc(-c3ccc(Br)cc3)nc3[nH]nc(N)c23)cc1
IC50 (Acetylcholinesterase): 0.35 µM

Compound: Nc1n[nH]c2nc(-c3ccc(Br)cc3)cc(-c3ccc(Br)cc3)c12
viability at 72 h, 3.125 µM [1]: 100% | IC50 [2]: 0.21 µM | selectivity ratio (human AChE): 343 | inhibition [3]: 79% | inhibition [4]: 66% | IC50 (Acetylcholinesterase): 0.17 µM | IC50 [5]: 11.6 µM | IC50 (Cholinesterase): 0.17 µM | Activity [11]: Active | Activity [12]: Active | Activity [7]: Active | IC50 [8]: 0.46 µM | IC50 at 72 h [9]: 58.3 µM

Compound: COc1ccc(-c2cc(-c3ccccc3)nc3[nH]nc(N)c23)cc1
IC50 (Acetylcholinesterase): 22.4 µM

IC50 [2]: 1 µM
Compound: CCCCCCCCCCCCCC(=O)N[C@@H](CCCCN)C(=O)N[C@@H](CCC(=O)O)C(=O)N[C@@H](C)C(=O)N1CCC[C@H]1C(=O)N1CCC[C@H]1C(=O)N[C@@H](CO)C(=O)N1CCC[C@H]1C(=O)N1CCC[C@H]1C(=O)N[C@@H](CCC(N)=O)C(=O)N[C@@H](COP(=O)(O)O)C(=O)N1CCC[C@H]1C(=O)O (Myristoyl-KEAPPSPPQ[pS]P-OH)
